Here are results for 22 compounds from patent US12344603B2 (Genentech, Inc., priority 2020, dated 2025).

Structures can show the parent of a compound that is named as a salt.

The assay deals with IRE1α (Homo sapiens (Human), UniProt O75460, D688N). The experiment in a line: IRE1α TR-FRET competition binding assay (IRE1α HTRF). The conditions noted are these: TR-FRET competition binding to kinase domain of IRE1α. As to the method: IRE1α TR-FRET Competition Binding Assay. The affinity of compound binding to the kinase domain of IRE1α was determined using a time-resolved fluorescence resonance energy transfer (TR-FRET) competition assay.
The purified protein (final concentration 0.25 nM) was pre-incubated with anti-His Europium labeled antibody (Life Technologies PV5596, final concentration 2 nM) for one hour at 4° C. in TR-FRET Assay Buffer (50 mM HEPES, pH 7.5, 10 mM MgCl2, 0.083 mM Brij 35, 1 mM DTT, and 0.1% bovine gamma globulin) prior to addition to test compounds. An Alexa fluor 647-labeled probe based on an ATP competitive inhibitor was added to a final concentration of 2 nM. Reactions were carried out for one hour at room temperature in a final volume of 20 μL in 384 well white ProxiPlates (Perkin Elmer 6008289). Binding of the probe to the IRE1α protein was detected in an Envision instrument (PerkinElmer) equipped with a TRF laser option and a LANCE/Delfia Dual/Bias D400/D630 mirror (Ex 347 nm, 1st Em 665 nm, 2nd Em 615 nm).
(In general: TR-FRET usually uses a lanthanide donor and a delayed reading to cut background.)

Chain of IRE1α (O75460 547-977 D688N): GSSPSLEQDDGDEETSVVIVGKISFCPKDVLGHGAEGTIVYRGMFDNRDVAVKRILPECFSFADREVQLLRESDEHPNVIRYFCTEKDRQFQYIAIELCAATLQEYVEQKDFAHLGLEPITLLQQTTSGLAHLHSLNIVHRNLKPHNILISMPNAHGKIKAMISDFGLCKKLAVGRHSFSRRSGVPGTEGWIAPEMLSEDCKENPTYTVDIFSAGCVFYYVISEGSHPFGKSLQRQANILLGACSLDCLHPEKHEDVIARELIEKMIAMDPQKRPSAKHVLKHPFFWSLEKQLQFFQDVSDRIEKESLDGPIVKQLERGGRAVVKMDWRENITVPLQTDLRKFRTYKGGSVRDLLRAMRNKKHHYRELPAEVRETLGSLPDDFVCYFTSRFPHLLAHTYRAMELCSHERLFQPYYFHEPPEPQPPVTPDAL

`CC(C)n1c(=O)c(-c2ccc(NS(=O)(=O)CC3CCCC3(F)F)c(F)c2)nc2cnc(N[C@H]3CC[C@H](N(C)C)CC3)nc21` (mixture of isomers) [Example 264, 1-(2,2-Difluorocyclopentyl)-N-[4-[2-[[4-(dimethylamino)cyclohexyl]amino]-8-isopropyl-7-oxo-pteridin-6-yl]-2-fluoro-phenyl]methanesulfonamide] had a half-maximal inhibitory concentration (IC50) of 0.1 nM.

`CCCS(=O)(=O)Nc1ccc(-c2nc3cnc(N[C@H]4CC[C@H](N(C)C)CC4)nc3n(C(C)C)c2=O)c(F)c1` [Compound 161, N-(4-(2-(((1r,4r)-4-(Dimethylamino)cyclohexyl)amino)-8-isopropyl-7-oxo-7,8-dihydropteridin-6-yl)-3-fluorophenyl)propane-1-sulfonamide] returned a 50% inhibitory concentration (IC50) of 0.18 nM.

For `CC(C)n1c(=O)c(-c2ccc(NS(=O)(=O)Cc3ccccc3)c(F)c2)nc2cnc(N[C@@H]3CNC[C@@](C)(F)C3)nc21` [Compound 64, N-(2-Fluoro-4-(2-(((3S,5S)-5-fluoro-5-methylpiperidin-3-yl)amino)-8-isopropyl-7-oxo-7,8-dihydropteridin-6-yl)phenyl)-1-phenylmethanesulfonamide], the IC50 was determined as 0.21 nM.

On to `CC(C)n1c(=O)c(-c2ccc(NS(=O)(=O)CCC(F)(F)F)c(F)c2)cc2cnc(NC3CCC4(CC3)CNC4)nc21` [Example 220, N-(4-(2-((2-azaspiro[3.5]nonan-7-yl)amino)-8-isopropyl-7-oxo-7,8-dihydropyrido[2,3-d]pyrimidin-6-yl)-2-fluorophenyl)-3,3,3-trifluoropropane-1-sulfonamide], for which the IC50 is 5 nM.

`Cn1c(=O)c(-c2ccc(NS(=O)(=O)Cc3ccccc3)c(F)c2F)cc2cnc(N[C@H]3CCCNC3)nc21` [Compound 1, (S)—N-(2,3-Difluoro-4-(8-methyl-7-oxo-2-(piperidin-3-ylamino)-7,8-dihydropyrido[2,3-d]pyrimidin-6-yl)phenyl)-1-phenylmethanesulfonamide] showed a concentration for half-maximal inhibition (IC50) of 2.8 nM.

On to `CCCS(=O)(=O)Nc1ccc(-c2nc3cnc(N[C@@H]4CNC[C@@H](F)C4)nc3n(C(C)C)c2=O)cc1F` [Compound 82, N-[2-Fluoro-4-[2-[[(3S,5S)-5-fluoro-3-piperidyl]amino]-8-isopropyl-7-oxo-pteridin-6-yl]phenyl]propane-1-sulfonamide], for which the half-maximal inhibitory concentration (IC50) came to 0.8 nM.

In turn, `CC(C)n1c(=O)c(-c2ccc(NS(=O)(=O)Cc3ccccc3)c(F)c2)nc2cnc(N[C@@H]3CNC[C@H](CF)C3)nc21` [Compound 65, N-(2-Fluoro-4-(2-(((3S,5R)-5-(fluoromethyl)piperidin-3-yl)amino)-8-isopropyl-7-oxo-7,8-dihydropteridin-6-yl)phenyl)-1-phenylmethanesulfonamide] yielded a 50% inhibitory concentration (IC50) of 0.24 nM.

Regarding `CC(C)n1c(=O)c(-c2ccc(NS(=O)(=O)c3ccccc3Cl)nc2)cc2cnc(N[C@H]3CC[C@H](N(C)CCF)CC3)nc21` [Compound 146, 2-Chloro-N-(5-(2-(((1r,4r)-4-((2-fluoroethyl)(methyl)amino)cyclohexyl)amino)-8-isopropyl-7-oxo-7,8-dihydropyrido[2,3-d]pyrimidin-6-yl)pyridin-2-yl)benzenesulfonamide hydrochloride], the IC50 turned out to be 0.16 nM.

Take `CC(C)n1c(=O)c(-c2cc(F)c(NCC(O)C(F)(F)F)c(F)c2F)cc2cnc(N[C@H]3CC[C@H](N(C)C)CC3)nc21` (stereo partly shown) [Compound 99, 2-(((1r,4r)-4-(Dimethylamino)cyclohexyl)amino)-8-isopropyl-6-(2,3,5-trifluoro-4-((3,3,3-trifluoro-2-hydroxypropyl)amino)phenyl)pyrido[2,3-d]pyrimidin-7(8H)-one]: the IC50 amounted to 46 nM.

`Cc1nc(NS(=O)(=O)c2cccc(C#N)c2)ccc1-c1cc2cnc(N[C@H]3CC[C@H](N(C)C)CC3)nc2n(C(C)C)c1=O` [Compound 142, 3-Cyano-N-(5-(2-(((1r,4r)-4-(dimethylamino)cyclohexyl)amino)-8-isopropyl-7-oxo-7,8-dihydropyrido[2,3-d]pyrimidin-6-yl)-6-methylpyridin-2-yl)benzenesulfonamide] returned an IC50 of 0.69 nM.

The compound `CC(C)n1c(=O)c(-c2cc(F)c(NC(=O)C3CC3)c(F)c2F)cc2cnc(N[C@H]3CC[C@H](N(C)C)CC3)nc21` [Compound 37, N-(4-(2-(((1r,4r)-4-(Dimethylamino)cyclohexyl)amino)-8-isopropyl-7-oxo-7,8-dihydropyrido[2,3-d]pyrimidin-6-yl)-2,3,6-trifluorophenyl)cyclopropanecarboxamide] yielded an IC50 of 1.4 nM.

With `CC(C)n1c(=O)c(-c2cc(F)c(NC(=O)[C@H]3C[C@H]3F)c(F)c2F)cc2cnc(N[C@H]3CC[C@H](N(C)C)CC3)nc21` [Compound 63, (1R,2R)—N-(4-(2-(((1r,4r)-4-(Dimethylamino)cyclohexyl)amino)-8-isopropyl-7-oxo-7,8-dihydropyrido[2,3-d]pyrimidin-6-yl)-2,3,6-trifluorophenyl)-2-fluorocyclopropane-1-carboxamide hydrochloride], the IC50 was found to be 4.1 nM.

`CC(C)Nc1ncc2cc(-c3cc(F)c(NS(=O)(=O)CCC(F)(F)F)c(F)c3F)c(=O)n(C(C)C)c2n1` [Compound 21, 3,3,3-Trifluoro-N-(2,3,6-trifluoro-4-(8-isopropyl-2-(isopropylamino)-7-oxo-7,8-dihydropyrido[2,3-d]pyrimidin-6-yl)phenyl)propane-1-sulfonamide] displayed a half-inhibitory concentration (IC50) of 16 nM.

The compound `CC(C)n1c(=O)c(-c2cc(F)c(NS(=O)(=O)Cc3cccnc3C(F)(F)F)c(F)c2F)cc2cnc(N[C@@H]3CNC[C@@H](F)C3)nc21` [Compound 139, N-(2,3,6-Trifluoro-4-(2-(((3S,5S)-5-fluoropiperidin-3-yl)amino)-8-isopropyl-7-oxo-7,8-dihydropyrido[2,3-d]pyrimidin-6-yl)phenyl)-1-(2-(trifluoromethyl)pyridin-3-yl)methanesulfonamide] displayed an IC50 of 0.27 nM.

For the compound `Cc1nc(NS(=O)(=O)c2ccccc2Cl)ccc1-c1cc2cnc(N[C@H]3CC[C@H](N(C)CCF)CC3)nc2n(C(C)C)c1=O` [Compound 145, 2-Chloro-N-(5-(2-(((1r,4r)-4-((2-fluoroethyl)(methyl)amino)cyclohexyl)amino)-8-isopropyl-7-oxo-7,8-dihydropyrido[2,3-d]pyrimidin-6-yl)-6-methylpyridin-2-yl)benzenesulfonamide], the IC50 is 0.27 nM.

For the compound `CC(C)n1c(=O)c(-c2ccc(NS(=O)(=O)CCC(F)(F)F)c(F)c2)cc2cnc(N[C@@H]3CC[C@@H](N(C)C)[C@H](O)C3)nc21` [Example 227, N-(4-(2-(((1R,3R,4R)-4-(Dimethylamino)-3-hydroxycyclohexyl)amino)-8-isopropyl-7-oxo-7,8-dihydropyrido[2,3-d]pyrimidin-6-yl)-2-fluorophenyl)-3,3,3-trifluoropropane-1-sulfonamide], the IC50 was 0.3 nM.

As for `Cn1c(=O)c(-c2cccc3c(NS(=O)(=O)Cc4ccccc4)c(F)ccc23)cc2cnc(N[C@H]3CCCNC3)nc21` [Compound 5, (S)—N-(2-Fluoro-5-(8-methyl-7-oxo-2-(piperidin-3-ylamino)-7,8-dihydropyrido[2,3-d]pyrimidin-6-yl)naphthalen-1-yl)-1-phenylmethanesulfonamide], the IC50 is 0.28 nM.

`CCC(F)(F)CS(=O)(=O)Nc1ccc(-c2nc3cnc(N[C@H]4CC[C@H](N(C)C)CC4)nc3n(C(C)C)c2=O)cc1F` [Compound 165, N-(4-(2-(((1r,4r)-4-(Dimethylamino)cyclohexyl)amino)-8-isopropyl-7-oxo-7,8-dihydropteridin-6-yl)-2-fluorophenyl)-2,2-difluorobutane-1-sulfonamide hydrochloride]: the IC50 was found to be 0.1 nM.

`Cc1nc(NS(=O)(=O)Cc2ccc(F)cc2)ccc1-c1nc2cnc(N[C@H]3CC[C@H](N(C)C)CC3)nc2n(C(C)C)c1=O` [Example 252, N-[5-[2-[[4-(Dimethylamino)cyclohexyl]amino]-8-isopropyl-7-oxo-pteridin-6-yl]-6-methyl-2-pyridyl]-1-(4-fluorophenyl)methanesulfonamide]: the half-inhibitory concentration (IC50) was found to be 1 nM.

`CC(C)n1c(=O)c(-c2ccc(NS(=O)(=O)CCC(F)(F)F)c(F)c2)cc2cnc(N[C@H]3CC[C@H](N(C)C)[C@@H](O)C3)nc21` [Compound 228, N-(4-(2-(((1S,3S,4S)-4-(dimethylamino)-3-hydroxycyclohexyl)amino)-8-isopropyl-7-oxo-7,8-dihydropyrido[2,3-d]pyrimidin-6-yl)-2-fluorophenyl)-3,3,3-trifluoropropane-1-sulfonamide]: the IC50 stood at 0.2 nM.

Consider `CC(C)n1c(=O)c(-c2ccc(NS(=O)(=O)CC3(C(F)(F)F)CCC3)c(F)c2)nc2cnc(N[C@H]3CC[C@H](N(C)C)CC3)nc21` [Example 261, N-[4-[2-[[4-(Dimethylamino)cyclohexyl]amino]-8-isopropyl-7-oxo-pteridin-6-yl]-2-fluoro-phenyl]-1-[1-(trifluoromethyl)cyclobutyl]methanesulfonamide], for which the concentration for half-maximal inhibition (IC50) worked out at 0.2 nM.

With `CCn1c(=O)c(-c2cc(F)c(NS(=O)(=O)Cc3c(F)cccc3F)c(F)c2F)cc2cnc(N[C@@H]3CNC[C@@H](F)C3)nc21` [Compound 51, 1-(2,6-difluorophenyl)-N-(4-(8-ethyl-2-(((3S,5S)-5-fluoropiperidin-3-yl)amino)-7-oxo-7,8-dihydropyrido[2,3-d]pyrimidin-6-yl)-2,3,6-trifluorophenyl)methanesulfonamide], the half-maximal inhibitory concentration (IC50) was found to be 0.7 nM.

For orientation: IC50 means the point on the concentration scale where inhibition reaches its midpoint.
